From EP3040345A1, “Sodium channel subunits of pollinator insects and uses thereof” (Centre National de la Recherche Scientifique (CNRS), priority 2014, dated 2016)
Where “and” joins values, the source holds several entries; their conditions need not be identical. Equal values may be shown once. Entries after “also recorded” stand apart in the source; their conditions may differ.

Experiments:
honeybee Para channel = honeybee Para channel (Apis mellifera, UniProt C9D7C5); assay: Two-microelectrode voltage-clamp of Xenopus oocytes co-expressing Para channel and TipE; pyrethroid-induced tail currents; type: cell-based; details: for tail current induction: after conditioning pulses (-80mV to -20mV, 100 Hz), Para + TipE; for Hill coefficient: Hill fit of dose-response curve of tail current
Chain of honeybee Para channel (C9D7C5 1-2044): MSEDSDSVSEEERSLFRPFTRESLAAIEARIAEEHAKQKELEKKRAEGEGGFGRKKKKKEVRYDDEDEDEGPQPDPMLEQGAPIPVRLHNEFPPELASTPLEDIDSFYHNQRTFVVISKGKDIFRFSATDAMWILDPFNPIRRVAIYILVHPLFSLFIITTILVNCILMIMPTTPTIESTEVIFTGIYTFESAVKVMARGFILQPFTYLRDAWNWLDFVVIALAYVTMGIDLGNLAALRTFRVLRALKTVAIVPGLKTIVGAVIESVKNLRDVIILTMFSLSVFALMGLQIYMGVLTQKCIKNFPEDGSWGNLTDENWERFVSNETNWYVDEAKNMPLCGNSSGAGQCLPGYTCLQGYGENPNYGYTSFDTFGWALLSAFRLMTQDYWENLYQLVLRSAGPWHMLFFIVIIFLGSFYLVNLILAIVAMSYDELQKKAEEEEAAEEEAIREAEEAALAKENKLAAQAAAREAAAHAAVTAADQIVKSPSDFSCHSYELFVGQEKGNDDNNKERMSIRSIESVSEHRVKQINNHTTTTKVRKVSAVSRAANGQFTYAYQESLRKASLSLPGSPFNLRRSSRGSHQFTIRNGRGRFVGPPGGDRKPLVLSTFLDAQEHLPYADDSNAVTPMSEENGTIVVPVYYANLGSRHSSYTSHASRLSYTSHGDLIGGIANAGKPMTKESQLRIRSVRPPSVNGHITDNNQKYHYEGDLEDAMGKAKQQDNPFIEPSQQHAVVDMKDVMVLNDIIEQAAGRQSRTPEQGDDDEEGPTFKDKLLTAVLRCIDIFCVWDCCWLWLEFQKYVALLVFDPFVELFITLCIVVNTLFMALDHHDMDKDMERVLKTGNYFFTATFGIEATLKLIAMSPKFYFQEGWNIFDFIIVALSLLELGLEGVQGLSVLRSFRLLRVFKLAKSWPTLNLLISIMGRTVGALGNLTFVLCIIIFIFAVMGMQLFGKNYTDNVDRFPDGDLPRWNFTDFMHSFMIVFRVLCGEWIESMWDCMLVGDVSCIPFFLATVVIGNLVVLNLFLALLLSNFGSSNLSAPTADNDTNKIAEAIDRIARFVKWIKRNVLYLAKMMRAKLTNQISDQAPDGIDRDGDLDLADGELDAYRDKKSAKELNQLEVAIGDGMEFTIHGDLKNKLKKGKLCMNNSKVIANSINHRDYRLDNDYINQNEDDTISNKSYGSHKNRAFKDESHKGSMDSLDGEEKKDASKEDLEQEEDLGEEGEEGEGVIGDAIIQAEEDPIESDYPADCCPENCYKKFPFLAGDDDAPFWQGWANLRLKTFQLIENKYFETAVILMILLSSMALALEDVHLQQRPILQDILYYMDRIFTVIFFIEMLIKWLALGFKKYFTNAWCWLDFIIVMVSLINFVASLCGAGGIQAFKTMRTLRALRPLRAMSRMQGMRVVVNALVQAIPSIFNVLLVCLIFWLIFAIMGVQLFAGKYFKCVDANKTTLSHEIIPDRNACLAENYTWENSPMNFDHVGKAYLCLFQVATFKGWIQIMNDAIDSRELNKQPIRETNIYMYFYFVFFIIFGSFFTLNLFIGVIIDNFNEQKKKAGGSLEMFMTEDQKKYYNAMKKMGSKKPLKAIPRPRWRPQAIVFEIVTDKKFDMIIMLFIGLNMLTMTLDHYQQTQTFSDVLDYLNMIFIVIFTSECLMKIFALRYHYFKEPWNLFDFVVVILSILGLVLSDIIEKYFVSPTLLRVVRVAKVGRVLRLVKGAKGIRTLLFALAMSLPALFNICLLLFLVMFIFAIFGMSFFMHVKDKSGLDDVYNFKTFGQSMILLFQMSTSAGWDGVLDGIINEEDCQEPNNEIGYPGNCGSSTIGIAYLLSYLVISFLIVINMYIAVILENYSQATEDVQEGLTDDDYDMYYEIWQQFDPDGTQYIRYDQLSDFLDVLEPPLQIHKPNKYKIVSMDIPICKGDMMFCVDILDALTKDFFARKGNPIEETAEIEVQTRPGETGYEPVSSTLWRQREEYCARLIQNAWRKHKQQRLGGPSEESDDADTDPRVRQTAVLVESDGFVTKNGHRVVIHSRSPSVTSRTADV
Experimental: Xenopus oocytes were handled in accordance with the principles and guidelines of the Université Laval animal protection committee and the Canadian Council on Animal Care. […] They were then treated with 2 mg/ml collagenase (Collagenase type 1A from Clostridium histolyticum, Sigma) in OR2 solution for 1 h. They were then incubated for at least 1 h at 18°C in OR3 solution. Stage IV and V oocytes were microinjected with mRNA corresponding to the Para channel and the selected regulatory subunit (1 µg/µl for Para and 0.3 µg/µl for regulatory subunits, 50 nl/oocyte). The injected oocytes were incubated at 18°C in OR3 solution for at least 12 h before taking recordings.
Macroscopic currents from mRNA-injected oocytes were recorded in Ringer's solution using the two-microelectrode voltage-clamp technique. The membrane potential for the two-microelectrode voltage-clamp technique was controlled using a Warner oocyte clamp (Warner Instrument Corp.). The currents were filtered at 5 kHz (-3 dB; four-pole Bessel filter). The headstage of the Warner amplifier was attached to a plastic pool containing a 3M NaCl solution through a silver chloride wire connected to the bath solution using an agar bridge. The bridge contained 3% agar (w/v), 500 mM NMDG, and 10 mM HEPES (pH 7.4) and was threaded with a thin platinum/iridium wire to lower high-frequency impedance.
The pH was adjusted to 7.6 at 22°C using 1 M NaOH.
The dose-response curves obtained from these calculations were fitted to a Hill curve using the following equation: M = (MMax)/(1 + ((EC50/dose))^h), [formula] where h is the Hill coefficient, Mmax is the maximal fraction of channels affected, EC50 is the half-maximal effective concentration, and dose is the concentration at which the observation was made.
Current decay and tail current kinetics were fitted to the following equation when a single exponential was used: [formula] and to the following equation when double exponential was used: [formula] where y0 is the initial value, A is the weight of the exponential, and τ is the time constant of the exponential.

[1] = biological target: sodium current of honeybee antennal olfactory receptor neurons; details: Kadala A et al. 2011; cited from earlier work
drosophila Para channel = drosophila Para channel (Drosophila melanogaster, UniProt P35500); details: read-out: EC50 for the drosophila channel; Vais H et al. 2003, ATX-II used to inhibit inactivation; cited from earlier work
Chain of drosophila Para channel (P35500 whole entry): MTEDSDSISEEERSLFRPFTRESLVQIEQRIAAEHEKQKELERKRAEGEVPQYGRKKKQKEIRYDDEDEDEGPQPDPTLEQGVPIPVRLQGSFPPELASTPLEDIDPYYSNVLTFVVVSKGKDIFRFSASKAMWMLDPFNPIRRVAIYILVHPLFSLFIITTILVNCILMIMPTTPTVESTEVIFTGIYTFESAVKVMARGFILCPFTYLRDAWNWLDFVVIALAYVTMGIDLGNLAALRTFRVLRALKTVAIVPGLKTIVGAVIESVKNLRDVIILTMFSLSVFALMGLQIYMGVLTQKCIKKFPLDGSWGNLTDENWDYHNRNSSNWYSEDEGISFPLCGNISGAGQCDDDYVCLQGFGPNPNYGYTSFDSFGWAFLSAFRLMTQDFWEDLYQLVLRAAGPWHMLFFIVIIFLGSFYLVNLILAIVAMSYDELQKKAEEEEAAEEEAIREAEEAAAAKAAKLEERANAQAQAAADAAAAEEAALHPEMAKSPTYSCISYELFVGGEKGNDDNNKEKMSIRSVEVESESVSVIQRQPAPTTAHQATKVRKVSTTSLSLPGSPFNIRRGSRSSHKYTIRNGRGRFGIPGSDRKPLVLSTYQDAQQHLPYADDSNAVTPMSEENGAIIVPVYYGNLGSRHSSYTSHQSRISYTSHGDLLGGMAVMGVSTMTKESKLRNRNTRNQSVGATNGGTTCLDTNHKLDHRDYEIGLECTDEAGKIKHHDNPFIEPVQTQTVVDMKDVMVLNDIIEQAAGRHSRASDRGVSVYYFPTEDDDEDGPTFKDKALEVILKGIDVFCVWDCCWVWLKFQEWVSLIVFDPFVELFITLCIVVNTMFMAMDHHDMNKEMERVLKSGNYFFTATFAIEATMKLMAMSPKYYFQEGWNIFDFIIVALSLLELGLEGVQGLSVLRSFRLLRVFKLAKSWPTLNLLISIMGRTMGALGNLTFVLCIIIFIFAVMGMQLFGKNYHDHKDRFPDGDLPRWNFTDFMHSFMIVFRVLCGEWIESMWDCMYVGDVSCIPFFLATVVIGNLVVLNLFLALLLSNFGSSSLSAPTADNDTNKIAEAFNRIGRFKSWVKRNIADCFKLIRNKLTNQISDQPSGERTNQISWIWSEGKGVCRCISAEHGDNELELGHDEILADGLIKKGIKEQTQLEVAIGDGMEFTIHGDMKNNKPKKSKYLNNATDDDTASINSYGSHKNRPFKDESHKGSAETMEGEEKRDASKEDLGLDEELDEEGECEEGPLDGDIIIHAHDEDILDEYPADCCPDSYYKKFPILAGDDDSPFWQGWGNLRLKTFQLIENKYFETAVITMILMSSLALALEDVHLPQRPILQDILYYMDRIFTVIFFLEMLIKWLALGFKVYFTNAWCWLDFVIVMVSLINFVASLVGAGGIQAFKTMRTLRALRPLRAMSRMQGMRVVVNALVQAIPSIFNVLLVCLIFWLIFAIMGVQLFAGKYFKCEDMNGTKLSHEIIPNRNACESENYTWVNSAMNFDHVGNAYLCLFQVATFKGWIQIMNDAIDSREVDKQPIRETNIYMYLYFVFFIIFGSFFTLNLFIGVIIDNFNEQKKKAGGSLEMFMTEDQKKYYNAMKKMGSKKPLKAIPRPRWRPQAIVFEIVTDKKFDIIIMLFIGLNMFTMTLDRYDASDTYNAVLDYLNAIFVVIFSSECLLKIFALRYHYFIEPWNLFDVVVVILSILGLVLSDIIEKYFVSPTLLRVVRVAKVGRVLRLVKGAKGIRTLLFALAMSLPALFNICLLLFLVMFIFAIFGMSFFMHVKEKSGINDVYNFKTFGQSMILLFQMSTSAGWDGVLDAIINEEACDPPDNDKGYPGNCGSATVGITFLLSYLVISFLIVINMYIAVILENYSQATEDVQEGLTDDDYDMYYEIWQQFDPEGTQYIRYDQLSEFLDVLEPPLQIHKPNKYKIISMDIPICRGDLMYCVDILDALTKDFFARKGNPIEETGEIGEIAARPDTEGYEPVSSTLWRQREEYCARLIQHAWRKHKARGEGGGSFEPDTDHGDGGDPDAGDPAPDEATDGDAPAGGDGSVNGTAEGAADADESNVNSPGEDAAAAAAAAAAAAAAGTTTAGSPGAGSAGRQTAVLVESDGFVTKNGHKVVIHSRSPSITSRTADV

SMILES | tail current induction (honeybee Para channel; 10 µM) | Hill coefficient (honeybee Para channel) | relative weight of the slow component of tail current deactivation (honeybee Para channel; double exponential fit) | time constant of tail current deactivation, first exponential (honeybee Para channel; double exponential fit) | time constant of tail current deactivation, second exponential (honeybee Para channel; double exponential fit) | EC50 (honeybee Para channel; fraction of channels bound vs dose, Hill fit, 1700 conditioning pulses, Para + TipE in oocytes, read-out: half maximal effective concentration (EC50)) | shifts in activation, inactivation, or recovery from inactivation (honeybee Para channel; 10 µM in extracellular medium, Para co-expressed with TipE) | number of conditioning pulses at which the maximal effect is reached (honeybee Para channel; 10 µM, tail current amplitude) | time constant of deactivation of tail currents (single exponential) (honeybee Para channel; single exponential fit) | inversion (reversal potential) of tail current (honeybee Para channel; tail current after 200 conditioning pulses, linear voltage-dependence) | EC50 [1] | EC50 (drosophila Para channel)
CC(C)C(C(=O)OC(C#N)c1cccc(Oc2ccccc2)c1)c1ccc(Cl)cc1 (centres unmarked) [fenvalerate] | induced a tail current | 1.1817 and 1.18 | 85.4% | 9.9 s | 31.8 s | 289 nM and ~290 nM | – | – | – | – | – | –
CC1(C)C(C=C(Cl)Cl)C1C(=O)OCc1cccc(Oc2ccccc2)c1 (centres unmarked) [permethrin] | induced tail currents | 0.8263 and 0.83 | – | – | – | – | no significant effect; also recorded: did not induce statistically significant shifts | 200 pulses | 0.93 s | approximately +10 mV | 3500 nM | 12 nM
